Some results are limits rather than exact numbers.

For data set [1], the system named is T98G. The data set can be described thus: MTT assay, T98G. It is filed as cell-based. Conditions: Homo sapiens, 24 h of incubation, read-out: IC50 values ± SEM, MTT assay. On the procedure:
(§1) Human glioblastoma cell lines (A172 CRL-1620™, U-87 MG HTB-14™, U-118 MG HTB-15™, T98G CRL-1690™) and the mouse astrocyte cell line (C8-D1A CRL-2541™) were obtained from the American Type Culture Collection (ATCC, Manassas, VA, USA). The cell lines were cultured in complete medium: DMEM (Corning, Kennebunk, ME, USA) for C8-D1A and T98G, and EMEM (ATCC, Manassas, VA, USA) for A172, U-87 MG, U118MG. The media were supplemented with 10% foetal bovine serum (Eurx, Gdansk, Poland) and 1% penicillin-streptomycin solution (Corning, Kennebunk, ME, USA). Cells were cultured in cell culture flasks (Sarstedt, Numbrecht, Germany) at 37 °C in 5% CO2. For experiments, cells were washed with phosphate-buffered saline without calcium and magnesium (Corning, Kennebunk, ME, USA) and treated with 0.05% trypsin and 0.02% EDTA (Corning, Kennebunk, ME, USA). Cells were counted using a Sceptre 3.0 cell counter (Merck Millipore, Burlington, MA, USA) prior to seeding into plates. For 6-well plates, 5 x 10^5 cells/mL were seeded, while for 96-well plates (Sarstedt, Numbrecht, Germany), 1 x 10^5 cells/mL were seeded in 100 μL of the medium.
(§2) The cell lines were seeded in 96-well plates and cultured according to the methodology described in the previous section. Cells were then treated with the novel derivatives MM118 and MM119 and the reference compound temozolomide (TMZ) (Sigma-Aldrich, St. Louis, MO, USA) at concentrations of 0.1, 0.25, 0.5, 1.0, 2.5, 5.0, and 10.0 μM for 24 h. The MTT assay was performed using a solution of 3–(4,5-dimethyl-2-thiazolyl)-2,5-diphenyl-2H-tetrazolium bromide (Sigma-Aldrich, St. Louis, MO, USA) at a concentration of 5 mg/mL in phosphate-buffered saline without calcium and magnesium (Corning, Kennebunk, ME, USA). After 24 h incubation with test compounds, 10 μL MTT solution was added to each well, and cells were incubated for another 2 h at 37 °C. The cells were then lysed in 100 μL lysis buffer (25 mM HCl, 2% acetic acid, 3% DMF, and 5% SDS, adjusted to pH 4.7). Absorbance was measured at 570 nm using an Absorbance 96 microplate reader (Byonoy GmbH, Hamburg, Germany).

Data set [2] is described as follows: Annexin V-FITC/PI apoptosis analysis, U-87 MG. It is filed as cell-based, human. Conditions: human, U-87 MG cells, read-out: Viable cells. Here is the method:
(§3) The level of apoptosis induction of the newly synthesised compounds MM118 and MM119 was determined using double staining with Annexin V-FITC and propidium iodide (AV/PI). This method enables the differentiation of four cell populations based on their state: viable cells, necrotic cells, cells in early apoptosis, and late apoptosis. The compounds were analysed on A172 and U-87 MG human glioblastoma multiforme cell lines using concentrations of 1 μM and 1.5 μM over a 24-h exposure period.
(§4) The impact of apoptosis induction by the tested compounds at concentrations of 1 μM and 1.5 μM, as well as by temozolomide at 1.5 μM, was evaluated through annexin V-FITC and propidium iodide (PI) staining with the Apoptosis Detection Kit II (BD Biosciences, San Diego, CA, USA). The glioblastoma cell lines A172 and U-87 MG were then deprived of medium and washed several times with cold phosphate-buffered saline (PBS) solution. The cell suspension was then prepared in the binding buffer provided in the kit at a concentration of 1 × 10^6 cells/mL. From each sample, 100 μL of the cell suspension was transferred to tubes and subsequently treated with 5 μL of Annexin V-FITC and 5 μL of propidium iodide (PI). The tubes were then incubated for 15 min at room temperature in the dark. Following the incubation period, 400 μL of binding buffer was added to each sample, after which the samples were immediately analysed using a BD FACSCanto II flow cytometer (Becton Dickinson Biosciences, San Jose, CA, USA), with 10,000 events recorded per sample. The results were then analysed using FACSDiva Software Version 6.1.3 (BD Biosciences Systems, San Jose, CA, USA).

Data set [3] concerns U-87 MG. The data set can be described thus: Annexin V-FITC/PI apoptosis analysis, U-87 MG. It is filed as cell-based, human. Conditions: 1.5 μM, 24 h. On the procedure:
as §3, §4

In data set [4] the test system is caspase 1. Put plainly: Caspase 1 activation (FAM FLICA), U-87 MG. Conditions: 24 h. The format is cell-based, human. Here is the method:
(§5) Given the activation of oxidative stress and the occurrence of apoptotic cell death, we decided to verify whether other cell death pathways are triggered. The level of pyroptosis induction of the newly synthesised compounds MM118 and MM119 was determined by assessing the activation of caspase 1. This method facilitates the identification of cells undergoing pyroptosis by detecting the active form of caspase 1, which is a pivotal mediator in the pyroptotic pathway. The tested compounds were analysed on human A172 and U-87 MG glioblastoma multiforme cell lines using concentrations of 1 μM and 1.5 μM for a period of 24 h. […] Conversely, for compound MM119 in line A172, caspase 1 activation was 12.35 ± 2.00% at a concentration of 1 μM and 21.30 ± 1.57% at a concentration of 1.5 μM. For the U-87 MG line, the values were 12.25 ± 2.16% and 24.50 ± 2.11%, respectively.
(§6) The activity of caspase 1, caspase 3/7, caspase 8, and caspase 9 was evaluated through the utilisation of FAM FLICA Caspase Assays (ImmunoChemistry Technologies, Bloomington, MN, USA), in accordance with the established protocols. Following treatment with the compounds, the cells were collected at a concentration of 1 × 10^6 cells/mL, washed twice with cold PBS, and resuspended in 290 μL of PBS. The subsequent step involved the addition of 10 μL of 30X FLICA solution, followed by incubation at 37 °C in the absence of light for one hour. Then, 2 ml of Apoptosis Wash Buffer was added, and the samples were washed twice. A 300 μL aliquot of each sample was transferred to a BD FACSCanto II flow cytometer (Becton Dickinson Biosciences, San Jose, CA, USA), where 10,000 events per sample were recorded. The resulting data was then analysed using FACSDiva software, version 6.1.3 (BD Biosciences Systems, San Jose, CA, USA).

Data set [5] has as its system caspase 1. The data set can be described thus: Caspase 1 activation (FAM FLICA), A172. Conditions: 24 h. It is filed as cell-based, human. On the procedure: as §5, §6
In data set [6] the test system is A172. The data set can be described thus: MTT assay, A172. Conditions: Homo sapiens, A 172; A172, 24 h of incubation; read-out: IC50 values ± SEM, MTT assay. The format is cell-based. Here is the method: as §1, §2
A general note: Formazan colour is commonly taken as a measure of viable cells.

`CCC(CO)NS(=O)(=O)c1ccc(-n2nc(C)c3nc4nnnn4nc32)cc1` (stereo in doubt) [MM118, N-(R)-(1-hydroxy-but-2-yl)-4-[7-methyl-5H-pyrazolo[4,3-e]tetrazolo[1,5-b][1]^,[2]^,[4]triazin-5-yl)]benzenesulfonamide]: the IC50 in data set [1] is 2440 ± 393 nM; in data set [6], 889 ± 243 nM. In data set [2], the viability at 24 h, 1 µM was determined as 76.2%. In addition, in data set [2], the viability at 24 h, 1.5 µM was found to be 48.8 ± 3.9%. In data set [3], this compound had an Early apoptotic cells of 10.28 ± 4.08%. The compound further had a Late apoptotic cells in data set [3] of 38.73 ± 4.09%. The compound also gave a Necrotic cells in data set [3] of 2.30 ± 1.81%. In addition, the “Active caspase 1 (cell population)” value was 17.15 ± 1.81% in data set [4] (1.0 μM); 26.65 ± 2.28% in data set [4] (1.5 μM); 12.10 ± 1.69% in data set [5] (A172, 1.0 μM); 20.38 ± 1.75% in data set [5] (A172, 1.5 μM).
Take `CCC(CO)NS(=O)(=O)c1ccc(-n2nc(C)c3nc4nnnn4nc32)cc1` (stereo in doubt) [MM119, N-(S)-(1-hydroxy-but-2-yl)-4-[7-methyl-5H-pyrazolo[4,3-e]tetrazolo[1,5-b][1]^,[2]^,[4]triazin-5-yl)]benzenesulfonamide]: the values for the IC50 in data set [1] and in data set [6] were 4410 ± 1190 nM and 1240 ± 386 nM, respectively. Further, the viability at 24 h, 1 µM in data set [2] is 85.4%. For the same compound, the viability at 24 h, 1.5 µM in data set [2] stood at 50.5 ± 7.23%. In data set [3], the Early apoptotic cells came out at 10.18 ± 4.45%. Further, in data set [3], the Late apoptotic cells is reported as 37.40 ± 6.20%. In data set [3], this compound had a Necrotic cells of 1.95 ± 1.42%. In addition, the “Active caspase 1 (cell population)” value in data set [4] (1.0 μM) came out at 12.25 ± 2.16%; in data set [4] (1.5 μM), 24.50 ± 2.11%; in data set [5] (A172, 1.0 μM), 12.35 ± 2.00%; in data set [5] (A172, 1.5 μM), 21.30 ± 1.57%.
On to `Cn1nnc2c(C(N)=O)ncn2c1=O` [TMZ, temozolomide, reference compound], for which the concentration for half-maximal inhibition (IC50) in data set [1] was greater than 10000 nM. In data set [2], the viability at 24 h, 1.5 µM came to 93.4%. In data set [3], this compound had an Early apoptotic cells of 3.40 ± 1.63%, a Late apoptotic cells of 4.73 ± 0.64%, a Necrotic cells of 0.25 ± 0.24% and a Viable cells of 91.65 ± 1.58%. The “Active caspase 1 (cell population)” value in data set [4] (1.5 μM) is “no significant differences”. In data set [5] (A172, 1.5 μM), the “Active caspase 1 (cell population)” value is listed as “no significant differences”. Further, the IC50 in data set [6] was greater than 10000 nM.

What is called IC50 is the midpoint of a concentration-inhibition curve.
